Experimental data reported in patent US20240286179A1, “METHODS AND COMPOSITIONS FOR WASTE MANAGEMENT SYSTEMS” (priority 2023, published 2024).
Like-named read-outs stand apart in the source and are kept apart here.

How the values were obtained:
[1] = test system: chlorite dismutase (Cld) enzymes
Procedure: Using water displacement method, the oxygen production and yield were calculated from 4 gm of sodium chlorite in a 300 mL wet creek bed soil sample (526 gm) placed in 500 mL Erlenmeyer flask with rubber stopper connected with rubber tubing to an inverted 1 L graduated beaker full of water and placed in a rectangular plastic tub with water.

[2] = test system: methanogenesis
Procedure: A composting experiment was conducted in a 2-liter plastic soda bottle with 1 cup of organic food waste from kitchen waste with coffee grounds, 1 cup of leaves or grass clippings, 1 cup of shredded paper, and 4 cups of wet creek bed soil with 16 g of sodium chlorite (9.6 g/kg soil concentration) or 4 cups of wet creek bed soil without sodium chlorite. Gas produced in this experiment was collected using water displacement method. The %/Vol of methane was measured with a portable multi 4 gas detector with air gas sampling pump.
The LEL of CH4 is 5% of gas volume.

[3] = test system: methanogenesis; remark: listed apart in the source
Procedure: An anoxic composting reactor was designed and constructed that comprised of a 2-liter plastic soda bottle attached to a 200 ml foil gas bag for quantitative gas analysis using gas chromatography. Composting experiments in anoxic composting reactor were conducted with 1 cup of organic food waste from kitchen waste with coffee grounds, 1 cup of leaves or grass clippings, 1 cup of shredded paper, and 4 cups of surface creek soil with 16 g of NaClO2 (9.6 g/kg soil concentration) or 4 cups of surface creek soil without NaClO2 or 4 cups of landfill cover soil with 16 g of NaClO2, or 4 cups or landfill cover soil without NaClO2.
Volumes of gas in the foil bags were estimated over a 3-week period. The gas samples were analyzed for fixed gases (hydrogen, oxygen, nitrogen, carbon monoxide, methane, and carbon dioxide) according to modified EPA Method 3C (single injection) using a gas chromatograph equipped with a thermal conductivity detector by ALS Environmental (Simi Valley, CA).

[4] = test system: chlorite dismutase (Cld) enzymes; details: for balloon inflation: creek water
Procedure: A qualitative sampling device was created using: 300 mL plastic water bottle, 7-inch balloon and 3×⅛ in rubber band. Freshwater, wet creek bed soil (alluvial soil), and dry creek bank soil samples were collected from a stream habitat (Denton Creek in Coppell, Texas). Samples were placed in a sampling device with or without sodium chlorite (0 g, 16 g, or 32 g) to screen for the presence of Cld enzymes by observing inflation of balloon.

[5] = test system: chlorite dismutase (Cld) enzymes; details: 16 g NaClO2 (30 g/kg)
Procedure: A qualitative reactor for detection of gas production was designed and constructed using: 300 mL plastic water bottle, 7-inch balloon and 3×⅛ in rubber band. The surface creek soil, deep creek soil, and landfill soil cover samples were placed in qualitative reactor with 16 g NaClO2 (30 g/kg soil concentration) and without any NaClO2 to screen for the presence of Cld enzymes by observing the inflation of balloon indicating biogas production.

[6] = wet creek bed soil with 16 g NaClO2 (9.6 g/kg)

Substance: sodium chlorite [NaClO2]
- measurable gas production ([1]; 4 g NaClO2 in 526 g creek bed soil (7.6 g/kg), over a 65-hour period before plateauing): 145 mL
- measurable volume as % of theoretical oxygen yield ([1]; reduction of 4 grams NaClO2, calculated using the Ideal Gas Law): around 14%
- Methane % Day 12 ([2]; Volume %, 16 g NaClO2 (9.6 g/kg), Day 12): 0.75%
- Methane % Day 23 ([2]; Volume %, 16 g NaClO2 (9.6 g/kg), Day 23): 0%
- Methane % Day 34 ([2]; Volume %, 16 g NaClO2 (9.6 g/kg), Day 34): 0%
- time at which gas production plateaued [2, 6]: about 134 hours
- time at which gas production was noted after set-up [2, 6]: one
- time within which most of the measurable gas production occurred [2, 6]: ≤ 46 h
- millimoles of methane generated, creek reactors without NaClO2 compared with creek reactors with NaClO2 ([3]; P-value=0.037, one-tailed paired t test): significantly higher
- volume of biogas produced ([3]; creek soil reactors with NaClO2, spread +/−81, P=0.009 vs without NaClO2): 328 mL
- CO2 levels in gas ([3]; landfill soil cover samples with or without NaClO2): lower levels of CO2
- CO2 levels in gas ([3]; surface creek soil, 16 g NaClO2 (9.6 g/kg)): increasing levels of CO2
- onset of gas production ([3]; surface creek soil, 16 g NaClO2 (9.6 g/kg), over a 60-hour period): immediate gas production
- time to rapid balloon inflation ([4]; alluvial creek bed soil, 16 g (0.053 g/ml) NaClO2): ≤ 6 h
- balloon inflation ([4]; 16 g (0.053 g/ml) NaClO2, after 2 days): no balloon inflation
- balloon inflation ([4]; 32 g (0.11 g/ml) NaClO2, after 2 days): no balloon inflation
- time to rapid balloon inflation ([5]; deep creek soil): ≤ 6 h
- balloon inflation ([5]; landfill cover soil): did not show any balloon inflation
- time to rapid balloon inflation ([5]; surface creek soil): ≤ 6 h
